PMC6385358, “Discovery of ((1,2,4-oxadiazol-5-yl)pyrrolidin-3-yl)ureidyl derivatives as selective non-steroidal agonists of the G-protein coupled bile acid receptor-1” (Scientific Reports, 2019)
Where “and” joins values, the source holds several entries; their conditions need not be identical. Identical values can stand only once.

Experiments:
[1] = Liver microsomal stability; assay type: in vitro ADME, mouse; conditions: liver microsomes; for CIint / half-life at 1 μM: 1 μM compound; for CIint: 0.3 mg protein/mL; for half-life at 1 μM: male, CD-1, mouse, pH 7.4, read-out: t½
Description: (§1) Chromatography was performed using a HPLC–MS system Q-ToF Premiere instrument (Waters, Co.) equipped with an ESI source and Waters pump systems. The mixture was separated on a Luna 5 µm C8(2) 100 °A 150 × 2 mm from Phenomenex. The mobile phase consisted of 0.2% formic acid (FA) in water as solvent A and 0.2% FA in acetonitrile as solvent B at a flow rate of 200 μL/min. The gradient was as follows: 0–2 min (75% A and 25% B), 2–20 min (5% A and 95% B), 20–30 min (75% A and 25% B). The detection of analytes was achieved by ESI in the positive mode with the appropriate MRM transition or by UV system at 220 nm.
Male mouse (CD-1) liver microsomes (Sigma-Aldrich) were used. All incubations were performed in duplicate in a shaking water bath at 37 °C. The incubation mixtures contained 1 μM compound with 1% DMSO used as a vehicle, mouse liver microsomes (0.3 mg of microsomal protein per mL), 5 mM MgCl2, 1 mM NADP, 5 mM glucose 6-phosphate, 0.4 U·mL^-^1 glucose 6-phosphate dehydrogenase, and 50 mM potassium phosphate buffer (pH 7.4) in a final volume of 0.5 mL. Aliquots were removed at 0, 5, 10, 20, 30, and 40 min after microsome addition and the reaction was stopped by adding 200 μL of ice-cold acetonitrile. After 2 h, the samples were centrifuged for 10 min at 10000 rpm, and the supernatants were transferred in matrix tubes for LC-MS/MS analysis. Propranolol, known as a high hepatic clearance drug in rodents, was used as a quality-control compound for the microsomal incubations. The slope of the linear regression of the curve obtained reporting the natural logarithm of compound area versus incubation time (−k) was used in the conversion to in vitro t1/2 values by t1/2 = […]. In vitro intrinsic clearance (Clint expressed as μL/min/mg) was calculated according to the following formula: Clint = volume of reaction (μL)/t1/2 (min)/protein of liver microsomes (mg).

[2] = tested on: pro-glucagon mRNA in GLUTag cells; experiment: RT-PCR of pro-glucagon mRNA expression in GLUTag cells; assay type: cell-based, mouse; conditions: 10 μM
Description: The activity of compounds 1–14 on GPBAR1 was evaluated in a luciferase reporter assay using HEK-293T cells transfected with GPBAR1. The efficacy of tested compounds (Table 1) was measured using taurolithocholic acid (TLCA) as GPBAR1 reference compound[10],[11]. Each compound was tested at the concentration of 10 μM and transactivation activity of TLCA on a cAMP responsive element (CRE) (i.e. TGR5/GPBAR1) was considered equal to 100%. […] Thus, 9 and 10 (Table 1) turned out to be the most promising derivatives considering their low EC50 values and high activity efficacy. To further characterize the pharmacological properties of these compounds, we expanded their in vitro profile to common off-targets for bile acid receptor ligands.
Figure 3 (A) Dose response curves of compounds 9 and 10 (concentrations ranging from 1 to 50 µM) in luciferase reporter assay. (B) Real-time PCR analysis of mRNA expression of Pro-glucagon in GLUTag cells treated with compounds 9 and 10 at 10 μM, and TLCA used as a positive control (10 μM). Values are normalized to GAPDH and are expressed relative to those of not treated cells (NT) which are arbitrarily settled to 1. The relative mRNA expression is expressed as 2^(−ΔΔCt). (C) Specificity of compounds 9 and 10 at 10 μM dose in luciferase reporter assays versus PPARα and PPARγ using Gemfibrozil (GEM, 10 μM) and Rosiglitazone (ROSI, 100 nM) as positive controls respectively. (D) Specificity of compounds 9 and 10 at 10 μM in luciferase reporter assays versus LXRα and LXRβ using GW3965 (GW, 10 μM) as positive control. (E) Specificity of compounds 9 and 10 at 10 μM in luciferase reporter assays versus FXR using CDCA (10 μM) as positive control; (F) Specificity of compounds 9 and 10 at 10 μM in luciferase reporter assays versus PXR using Rifaximin (Rifax, 10 μM) as positive control.
Evaluation of proglucagon mRNA expression was performed in RT-PCR on GLUTag cells (1 × 10^6 cells/well in a 6 well plate) as previously reported[34],[47]. The relative mRNA expression was calculated and expressed as 2^−(ΔΔCt). […]

[3] = Aqueous solubility measurement (PBS pH 7.4, LC-MS); assay type: physicochemical; conditions: aqueous buffer, kinetic from dmso stock; PBS pH 7.4, 24 h room temperature
Description: as §1
Ten μL of a 10 mM solution in DMSO of the compound was diluted either in 490 μL of PBS pH 7.4 or in the organic solvent MeOH (in triplicate). The tubes were gently shaken 24 h at room temperature, then centrifuged for 5 min at 4000 rpm. Ten μL of sample was diluted in 490 μL of MeOH. The solubility is determined by the ratio of mass signal area PBS/organic solvent.

CIint [1] [μL/min/mg protein] | Compound remaining 40 min after treatment [1] [%] | half-life at 1 μM [1] [min] | solubility at 24 h [3] | SMILES | Induction of pro-glucagon mRNA expression [2] | Efficacy in inducing pro-glucagon mRNA expression compared with TLCA ([2]; TLCA 10 μM)
67 | 42 | 35 | 42 µg/mL and 110 µM | O=C(Nc1ccc(Cl)cc1)N[C@@H]1CN[C@H](c2nc(-c3ccccc3)no2)C1 [Compound 9] | effective in inducing the expression of pro-glucagon mRNA | –
76 | 40 | 30 | 70 µg/mL and 198 µM | O=C(NC1CCCCC1)N[C@@H]1CN[C@H](c2nc(-c3ccccc3)no2)C1 [Compound 10] | effective in inducing the expression of pro-glucagon mRNA | same efficacy of TLCA
